Measured values: patent US9387200B2, “Isothiazole-pyridine derivatives as modulators of HIF (hypoxia inducible factor) activity” (FibroGen, Inc., priority 2008, dated 2016)

Target: T1, HIF-PH2 (Homo sapiens, UniProt Q9GZT9)
T1 construct: made in house; host or cells: insect Hi5 cells
Assay: HIF-PH assay (14CO2 capture, peptide-dependent turnover)
Assay type: biochemical
Settings: compound concentration 22.22 μM
From the text: Ketoglutaric acid α-[1-^14C]-sodium salt, alpha-ketoglutaric acid sodium salt, and HPLC purified peptide may be obtained from commercial sources, e.g., Perkin-Elmer (Wellesley Mass.), Sigma-Aldrich, and SynPep Corp. (Dublin Calif.), respectively. Peptides for use in the assay may be fragments of HIFα as described above or as disclosed in International Publication WO 2005/118836, incorporated by reference herein. For example, a HIF peptide for use in the HIF-PH assay is [methoxycoumarin]-DLDLEALAPYIPADDDFQL-amide. HIF-PH, e.g., HIF-PH2 (EGLN1), can be expressed in, e.g., insect Hi5 cells, and partially purified, e.g., through a SP ion exchange chromatography column. Enzyme activity is determined by capturing ^14CO2 using an assay described by Kivirikko and Myllyla (1982, Methods Enzymol. 82:245-304). Assay reactions contain 50 mM HEPES (pH 7.4), 100 μM α-ketoglutaric acid sodium salt, 0.30 μCi/mL ketoglutaric acid α-[1-^14C]-sodium salt, 40 μM FeSO4, 1 mM ascorbate, 1541.8 units/mL Catalase, with or without 50 μM peptide substrate and various concentrations of compound of the invention. Reactions are initiated by addition of HIF-PH enzyme.
The peptide-dependent percent turnover is calculated by subtracting percent turnover in the absence of peptide from percent turnover in the presence of substrate peptide. Percent inhibition and IC50 are calculated using peptide-dependent percent turnover at given inhibitor concentrations. Calculation of IC50 values for each inhibitor is conducted using GraFit software (Erithacus Software Ltd., Surrey UK).
Representative compounds of the invention were analyzed using the HIF-PH assay described above. Table I below presents enzyme inhibition data for exemplary compounds against HIF-PH2, a representative HIF prolyl hydroxylase enzyme. By inhibiting HIF prolyl hydroxylase enzymes, compounds of the invention stabilize HIFα, which then combines with HIFβ to form an active transcription factor that increases expression of various genes involved in numerous beneficial cellular processes.

T1 sequence (Q9GZT9 whole entry, species assumed): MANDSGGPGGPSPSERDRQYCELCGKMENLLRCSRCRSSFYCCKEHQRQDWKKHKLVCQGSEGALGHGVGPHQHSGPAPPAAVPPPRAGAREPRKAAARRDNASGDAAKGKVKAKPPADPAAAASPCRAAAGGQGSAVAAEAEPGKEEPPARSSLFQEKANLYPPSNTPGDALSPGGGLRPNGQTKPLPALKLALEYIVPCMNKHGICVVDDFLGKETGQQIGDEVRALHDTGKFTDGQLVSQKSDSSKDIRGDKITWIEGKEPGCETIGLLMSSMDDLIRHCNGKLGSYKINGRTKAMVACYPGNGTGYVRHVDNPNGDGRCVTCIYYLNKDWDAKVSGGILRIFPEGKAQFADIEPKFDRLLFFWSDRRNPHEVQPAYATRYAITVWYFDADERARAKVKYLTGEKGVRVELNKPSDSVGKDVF

| inhibition at 22.22 µM [%] | Compound |
| --- | --- |
| 98.3 | N#Cc1nc(C(=O)NCC(=O)O)c(O)c2c(-c3ccc(F)cc3)nsc12 [Example 8, {[7-Cyano-3-(4-fluoro-phenyl)-4-hydroxy-isothiazolo[5,4-c]pyridine-5-carbonyl]-amino}-acetic acid] |
| 91.5 | N#Cc1ccc(-c2nc(C(=O)NCC(=O)O)c(O)c3c(-c4ccc(F)cc4)nsc23)cc1 [Example 11, {[7-(4-Cyano-phenyl)-3-(4-fluoro-phenyl)-4-hydroxy-isothiazolo[5,4-c]pyridine-5-carbonyl]-amino}-acetic acid] |
| 97 | O=C(O)CNC(=O)c1nc(Cc2ccccc2)c2snc(-c3ccc(Cl)cc3)c2c1O [Example 22, {[7-Benzyl-3-(4-chloro-phenyl)-4-hydroxy-isothiazolo[5,4-c]pyridine-5-carbonyl]-amino}-acetic acid] |
| 100 | O=C(O)CNC(=O)c1nc(-c2cn(Cc3ccccc3)nn2)c2snc(-c3ccc(Cl)cc3)c2c1O [Example 23, {[7-(1-Benzyl-1H-[1,2,3]triazol-4-yl)-3-(4-chloro-phenyl)-4-hydroxy-isothiazolo[5,4-c]pyridine-5-carbonyl]-amino}-acetic acid] |
| 96 | O=C(O)CNC(=O)c1nc(-c2cccc3ccccc23)c2snc(-c3ccc(Cl)cc3)c2c1O [Example 24, {[3-(4-Chloro-phenyl)-4-hydroxy-7-naphthalen-1-yl-isothiazolo[5,4-c]pyridine-5-carbonyl]-amino}-acetic acid] |
| 98 | Cc1nsc2c(O)c(C(=O)NCC(=O)O)nc(-c3ccccc3)c12 [Example 31, [(7-Hydroxy-3-methyl-4-phenyl-isothiazolo[4,5-c]pyridine-6-carbonyl)-amino]-acetic acid] |

Same assay, conditions: compound concentration 200 μM

| inhibition at 200 µM [%] | Compound |
| --- | --- |
| 98 | O=C(O)CNC(=O)c1nc(-c2ccc(F)cc2)c2snc(-c3ccccc3)c2c1O [Example 1, {[7-(4-Fluoro-phenyl)-4-hydroxy-3-phenyl-isothiazolo[5,4-c]pyridine-5-carbonyl]-amino}-acetic acid] |
| 97.9 | COc1ccc(-c2nc(C(=O)NCC(=O)O)c(O)c3c(-c4ccccc4)nsc23)cc1 [Example 2, {[4-Hydroxy-7-(4-methoxy-phenyl)-3-phenyl-isothiazolo[5,4-c]pyridine-5-carbonyl]-amino}-acetic acid] |
| 100 | O=C(O)CNC(=O)c1nc(-c2cccnc2)c2snc(-c3ccccc3)c2c1O [Example 3, [(4-Hydroxy-3-phenyl-7-pyridin-3-yl-isothiazolo[5,4-c]pyridine-5-carbonyl)-amino]-acetic acid] |
| 99.1 | O=C(O)CNC(=O)c1nc(-c2ccccn2)c2snc(-c3ccccc3)c2c1O [Example 4, [(4-Hydroxy-3-phenyl-7-pyridin-2-yl-isothiazolo[5,4-c]pyridine-5-carbonyl)-amino]-acetic acid] |
| 97.1 | O=C(O)CNC(=O)c1nc(-c2ccncc2)c2snc(-c3ccccc3)c2c1O [Example 5, [(4-Hydroxy-3-phenyl-7-pyridin-4-yl-isothiazolo[5,4-c]pyridine-5-carbonyl)-amino]-acetic acid] |
| 98.3 | C#Cc1nc(C(=O)NCC(=O)O)c(O)c2c(-c3ccc(F)cc3)nsc12 [Example 6, {[7-Ethynyl-3-(4-fluoro-phenyl)-4-hydroxy-isothiazolo[5,4-c]pyridine-5-carbonyl]-amino}-acetic acid] |
| 100 | O=C(O)CNC(=O)c1nc(Br)c2snc(-c3ccc(F)cc3)c2c1O [Example 7, {[7-Bromo-3-(4-fluoro-phenyl)-4-hydroxy-isothiazolo[5,4-c]pyridine-5-carbonyl]-amino}-acetic acid] |
| 97.4 | Cc1nc(C(=O)NCC(=O)O)c(O)c2c(-c3ccc(F)cc3)nsc12 [Example 9, {[3-(4-Fluoro-phenyl)-4-hydroxy-7-methyl-isothiazolo[5,4-c]pyridine-5-carbonyl]-amino}-acetic acid] |
| 98.2 | O=C(O)CNC(=O)c1nc(-c2ccccc2)c2snc(-c3ccc(F)cc3)c2c1O [Example 10, {[3-(4-Fluoro-phenyl)-4-hydroxy-7-phenyl-isothiazolo[5,4-c]pyridine-5-carbonyl]-amino}-acetic acid] |
| 98.9 | O=C(O)CNC(=O)c1ncc2snc(-c3ccc(F)cc3)c2c1O [Example 12, {[3-(4-Fluoro-phenyl)-4-hydroxy-isothiazolo[5,4-c]pyridine-5-carbonyl]-amino}-acetic acid] |
| 94.5 | COc1ccc(-c2nc(C(=O)NCC(=O)O)c(O)c3c(-c4ccc(Cl)cc4)nsc23)cc1 [Example 13, {[3-(4-Chloro-phenyl)-4-hydroxy-7-(4-methoxy-phenyl)-isothiazolo[5,4-c]pyridine-5-carbonyl]-amino}-acetic acid] |
| 100 | C#Cc1nc(C(=O)NCC(=O)O)c(O)c2c(-c3ccc(Cl)cc3)nsc12 [Example 14, {[3-(4-Chloro-phenyl)-7-ethynyl-4-hydroxy-isothiazolo[5,4-c]pyridine-5-carbonyl]-amino}-acetic acid] |
| 99.5 | Cc1nc(C(=O)NCC(=O)O)c(O)c2c(-c3ccc(Cl)cc3)nsc12 [Example 15, {[3-(4-Chloro-phenyl)-4-hydroxy-7-methyl-isothiazolo[5,4-c]pyridine-5-carbonyl]-amino}-acetic acid] |
| 99.9 | O=C(O)CNC(=O)c1ncc2snc(-c3ccc(Cl)cc3)c2c1O [Example 16, {[3-(4-Chloro-phenyl)-4-hydroxy-isothiazolo[5,4-c]pyridine-5-carbonyl]-amino}-acetic acid] |
| 98.7 | O=C(O)CNC(=O)c1nc(-c2ccccc2)c2snc(-c3ccc(Cl)cc3)c2c1O [Example 17, {[3-(4-Chloro-phenyl)-4-hydroxy-7-phenyl-isothiazolo[5,4-c]pyridine-5-carbonyl]-amino}-acetic acid] |
| 54 | C[C@@H](NC(=O)c1ncc2snc(-c3ccc(Cl)cc3)c2c1O)C(=O)O [Example 18, (R)-2-{[3-(4-Chloro-phenyl)-4-hydroxy-isothiazolo[5,4-c]pyridine-5-carbonyl]-amino}-propionic acid] |
| 100 | C[C@H](NC(=O)c1ncc2snc(-c3ccc(Cl)cc3)c2c1O)C(=O)O [Example 19, (S)-2-{[3-(4-Chloro-phenyl)-4-hydroxy-isothiazolo[5,4-c]pyridine-5-carbonyl]-amino}-propionic acid] |
| 88.9 | COc1cccc(-c2nc(C(=O)NCC(=O)O)c(O)c3c(-c4ccc(Cl)cc4)nsc23)c1 [Example 20, {[3-(4-Chloro-phenyl)-4-hydroxy-7-(3-methoxy-phenyl)-isothiazolo[5,4-c]pyridine-5-carbonyl]-amino}-acetic acid] |
| 77 | COc1ccc(-c2nc(C(=O)NCC(=O)O)c(O)c3c(-c4ccc(Cl)cc4)nsc23)cn1 [Example 21, {[3-(4-Chloro-phenyl)-4-hydroxy-7-(6-methoxy-pyridin-3-yl)-isothiazolo[5,4-c]pyridine-5-carbonyl]-amino}-acetic acid] |
| 100 | CC(=O)c1nc(C(=O)NCC(=O)O)c(O)c2c(-c3ccc(Cl)cc3)nsc12 [Example 25, {[7-Acetyl-3-(4-chloro-phenyl)-4-hydroxy-isothiazolo[5,4-c]pyridine-5-carbonyl]-amino}-acetic acid] |
| 100 | O=C(O)CNC(=O)c1nc(C(F)(F)F)c2snc(-c3ccc(Cl)cc3)c2c1O [Example 26, {[3-(4-Chloro-phenyl)-4-hydroxy-7-trifluoromethyl-isothiazolo[5,4-c]pyridine-5-carbonyl]-amino}-acetic acid] |
| 98 | O=C(O)CNC(=O)c1nc(Br)c2c(-c3ccccc3)nsc2c1O [Example 27, [(4-Bromo-7-hydroxy-3-phenyl-isothiazolo[4,5-c]pyridine-6-carbonyl)-amino]-acetic acid] |
| 100 | Cc1nc(C(=O)NCC(=O)O)c(O)c2c(C)nsc12 [Example 28, [(4-Hydroxy-3,7-dimethyl-isothiazolo[5,4-c]pyridine-5-carbonyl)-amino]-acetic acid] |
| 100 | Cc1nsc2c(O)c(C(=O)NCC(=O)O)nc(C)c12 [Example 29, [(7-Hydroxy-3,4-dimethyl-isothiazolo[4,5-c]pyridine-6-carbonyl)-amino]-acetic acid] |
| 100 | Cc1nsc2c(-c3ccccc3)nc(C(=O)NCC(=O)O)c(O)c12 [Example 30, [(4-Hydroxy-3-methyl-7-phenyl-isothiazolo[5,4-c]pyridine-5-carbonyl)-amino]-acetic acid] |
| 100 | Cc1nsc2c(O)c(C(=O)NCC(=O)O)ncc12 [Example 32, [(7-Hydroxy-3-methyl-isothiazolo[4,5-c]pyridine-6-carbonyl)-amino]-acetic acid] |
